From PubChem BioAssay (NCI)
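Compound exposure: 48 hours, 5 concentrations, 96-well plates. TGI marks complete inhibition of growth.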

How the values were obtained:
Assay in all cases: NCI tumour cell line growth inhibition, 48 h
786-0 renal = tested on: 786-0 renal
A498 renal = tested on: A498 renal
A549 NSCLC = tested on: A549 NSCLC
ACHN renal = tested on: ACHN renal
CAKI-1 renal = tested on: CAKI-1 renal
CCRF-CEM leukemia = tested on: CCRF-CEM leukemia
COLO 205 colon = tested on: COLO 205 colon
DU-145 prostate = tested on: DU-145 prostate
EKVX NSCLC = tested on: EKVX NSCLC
HCC-2998 colon = tested on: HCC-2998 colon
HCT-116 colon = tested on: HCT-116 colon
HCT-15 colon = tested on: HCT-15 colon
HL-60(TB) leukemia = tested on: HL-60(TB) leukemia
HOP-62 NSCLC = tested on: HOP-62 NSCLC
HOP-92 NSCLC = tested on: HOP-92 NSCLC
HS 578T breast = tested on: HS 578T breast
HT29 colon = tested on: HT29 colon
IGROV1 ovarian = tested on: IGROV1 ovarian
K-562 leukemia = tested on: K-562 leukemia
KM12 colon = tested on: KM12 colon
LOX IMVI melanoma = tested on: LOX IMVI melanoma
M14 melanoma = tested on: M14 melanoma
MALME-3M melanoma = tested on: MALME-3M melanoma
MCF7 breast = tested on: MCF7 breast
MDA-MB-231 breast = tested on: MDA-MB-231 breast
MDA-MB-435 = tested on: MDA-MB-435
MDA-N = tested on: MDA-N
NCI-H226 lung = tested on: NCI-H226 lung
NCI-H23 lung = tested on: NCI-H23 lung
NCI-H460 lung = tested on: NCI-H460 lung
NCI-H522 lung = tested on: NCI-H522 lung
NCI/ADR-RES ovarian = tested on: NCI/ADR-RES ovarian
OVCAR-3 ovarian = tested on: OVCAR-3 ovarian
OVCAR-4 ovarian = tested on: OVCAR-4 ovarian
OVCAR-5 ovarian = tested on: OVCAR-5 ovarian
OVCAR-8 ovarian = tested on: OVCAR-8 ovarian
PC-3 prostate = tested on: PC-3 prostate
RPMI-8226 leukemia = tested on: RPMI-8226 leukemia
RXF 393 renal = tested on: RXF 393 renal
SF-268 CNS = tested on: SF-268 CNS
SF-295 CNS = tested on: SF-295 CNS
SF-539 CNS = tested on: SF-539 CNS
SK-MEL-2 melanoma = tested on: SK-MEL-2 melanoma
SK-MEL-28 melanoma = tested on: SK-MEL-28 melanoma
SK-MEL-5 melanoma = tested on: SK-MEL-5 melanoma
SK-OV-3 ovarian = tested on: SK-OV-3 ovarian
SN12C renal = tested on: SN12C renal
SNB-19 CNS = tested on: SNB-19 CNS
SNB-75 CNS = tested on: SNB-75 CNS
SR leukemia = tested on: SR leukemia
SW-620 colon = tested on: SW-620 colon
T-47D breast = tested on: T-47D breast
TK-10 renal = tested on: TK-10 renal
U251 CNS = tested on: U251 CNS
UACC-257 melanoma = tested on: UACC-257 melanoma
UACC-62 melanoma = tested on: UACC-62 melanoma
BT-549 breast = tested on: BT-549 breast
MOLT-4 leukemia = tested on: MOLT-4 leukemia
UO-31 renal = tested on: UO-31 renal

Measured: TGI

CC1(C)N=C(C(N)=O)c2ncn(Cc3ccccc3)c2N1
not listed: BT-549 breast | MOLT-4 leukemia | UO-31 renal
> 100 µM: all other assays above

COc1nc(=O)[nH]c2c1C(c1ccc([N+](=O)[O-])cc1)c1c(OC)nc(=O)[nH]c1O2
not listed: HCC-2998 colon | HOP-92 NSCLC | K-562 leukemia | LOX IMVI melanoma | MALME-3M melanoma | MCF7 breast | SF-539 CNS | SNB-75 CNS | SR leukemia | T-47D breast
> 100 µM: all other assays above
